One block for each compound: values may come before it.
Biological target: T1, rat mGlu 1a receptor (Rattus norvegicus, UniProt P23385)
T1 construct: expressed in transfected cells; host or cells: EBNA cells (transient transfection)
Assay: [Ca2+]i measurements (FLIPR, Fluo-3 AM) on mGlu 1a transfected EBNA cells; agonist or antagonist (against 10 μM glutamate)
Assay type: cell-based
Conditions: for Remarks (agonist / antagonist): table of substituents of the Examples, column Remarks; for agonist/antagonist: activity-data table; for EC50: agonist, activation of mGlu 1a in EBNA cells, read-out: IC50 (compounds marked agonist)
Description: cDNA encoding rat mGlu 1a receptor obtained from Prof. Nakanishi (Kyoto, Japan) was transiently tranfected into EBNA cells using a procedure described by Schlaeger et. al, New Dev. New Appl. Anim Cell Techn., Proc. ESACT Meet., 15th (1998), 105-112 and 117-120. [Ca^2+ ]i measurements were performed on mGlu 1a transfected EBNA cells after incubation of the cells with Fluo-3 AM (0.5 μM final concentration) for 1hour at 37° C. followed by 4 washes with assay buffer (DMEM supplemented with Hank's salt and 20 mM HEPES. [Ca^2+ ]i measurements were done using a fluorometric imaging plate reader (FLIPR, Molecular Devices Corporation, La Jolla, Calif. USA). When compounds were evaluated as antagonists they were tested against 10 μM glutamate as agonist.
The inhibition (antagonists) or activation (agonists) curves were fitted with a four parameter logistic equation giving EC50, IC50, and Hill coefficient using the iterative non linear curve fitting software Origin (Microcal Software Inc., Northampton, Mass., USA).

T1 sequence (P23385 19-1199): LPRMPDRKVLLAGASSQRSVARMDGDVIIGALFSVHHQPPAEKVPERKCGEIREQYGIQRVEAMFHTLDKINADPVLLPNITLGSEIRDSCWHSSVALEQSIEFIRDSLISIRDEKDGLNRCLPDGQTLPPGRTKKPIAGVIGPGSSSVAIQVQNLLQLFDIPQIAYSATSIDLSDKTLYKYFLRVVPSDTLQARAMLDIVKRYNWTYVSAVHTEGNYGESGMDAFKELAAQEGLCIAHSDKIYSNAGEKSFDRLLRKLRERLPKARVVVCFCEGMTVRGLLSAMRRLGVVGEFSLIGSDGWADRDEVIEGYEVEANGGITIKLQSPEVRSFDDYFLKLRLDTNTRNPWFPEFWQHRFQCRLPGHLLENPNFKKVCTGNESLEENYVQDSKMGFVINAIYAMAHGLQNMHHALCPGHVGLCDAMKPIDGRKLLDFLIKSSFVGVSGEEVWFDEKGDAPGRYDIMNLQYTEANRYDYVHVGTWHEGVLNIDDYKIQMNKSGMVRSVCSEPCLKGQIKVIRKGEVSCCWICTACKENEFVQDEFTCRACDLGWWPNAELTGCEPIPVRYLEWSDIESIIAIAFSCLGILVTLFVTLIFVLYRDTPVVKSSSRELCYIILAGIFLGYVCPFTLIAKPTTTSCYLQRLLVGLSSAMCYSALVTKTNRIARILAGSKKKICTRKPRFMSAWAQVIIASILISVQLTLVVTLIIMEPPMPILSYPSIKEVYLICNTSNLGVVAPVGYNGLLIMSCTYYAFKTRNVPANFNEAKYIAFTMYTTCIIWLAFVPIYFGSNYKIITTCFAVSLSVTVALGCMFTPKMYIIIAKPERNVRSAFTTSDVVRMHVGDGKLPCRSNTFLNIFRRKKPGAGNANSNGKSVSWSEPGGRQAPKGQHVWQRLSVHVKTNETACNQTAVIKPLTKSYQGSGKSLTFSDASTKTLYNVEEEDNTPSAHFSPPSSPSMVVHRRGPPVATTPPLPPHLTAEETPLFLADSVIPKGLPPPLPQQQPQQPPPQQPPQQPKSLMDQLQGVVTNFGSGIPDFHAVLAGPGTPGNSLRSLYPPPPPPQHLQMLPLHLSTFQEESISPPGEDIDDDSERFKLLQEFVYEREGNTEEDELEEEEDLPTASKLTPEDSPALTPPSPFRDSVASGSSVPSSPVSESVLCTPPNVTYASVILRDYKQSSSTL

SMILES: COc1cccc(C2CCCN2S(=O)(=O)c2ccc(Cl)cc2)c1 (racemic) [Example 34, (RS)-1-(4-Chloro-benzenesulfonyl)-2-(3-methoxy-phenyl)-pyrrolidine]
- Remarks (agonist / antagonist): Antagonist

SMILES: Cc1ccc(C2CCCN2S(=O)(=O)c2ccc(F)cc2)cc1 (racemic) [Example 23, (RS)-1-(4-Fluoro-benzenesulfonyl)-2-p-tolyl-pyrrolidine]
- Remarks (agonist / antagonist): Antagonist

SMILES: COc1ccc(C2CCCN2S(=O)(=O)c2ccc(C)cc2)cc1 (racemic) [Example 25, (RS)-2-(4-Methoxy-phenyl)-1-(toluene-4-sulfonyl)-pyrrolidine]
- agonistic / antagonistic activity to the mGlu receptor: agonistic activty
- Remarks (agonist / antagonist): Agonist

SMILES: Cc1ccc(S(=O)(=O)N2CCCC2c2ccccc2Cl)cc1 (racemic) [Example 51, (RS)-2-(2-Chloro-phenyl)-1-(toluene-4-sulfonyl)-pyrrolidine]
- Remarks (agonist / antagonist): Antagonist

SMILES: CC(C)c1ccc(S(=O)(=O)N2CCCC2c2ccc(F)cc2)cc1 (racemic) [Example 22, (RS)-2-(4-Fluoro-phenyl)-1-(4-isopropyl-benzenesulfonyl)-pyrrolidine]
- Remarks (agonist / antagonist): Antagonist

SMILES: O=S(=O)(c1ccccc1)N1CCCC1c1ccc(F)cc1 (racemic) [Example 7, (RS)-1-Benzenesulfonyl-2-(4-fluoro-phenyl)-pyrrolidine]
- agonist/antagonist: antagonist
- IC50 (antagonist, tested against 10 μM glutamate as agonist, read-out: IC50 (compounds marked antagonist)): 8 µM
- Remarks (agonist / antagonist): Antagonist

SMILES: O=S(=O)(c1ccc(F)cc1)N1CCCC1c1ccc(C(F)(F)F)cc1 (racemic) [Example 50, (RS)-1-(4-Floro-benzenesulfonyl)-2-(4-trifluoromethyl-phenyl)-pyrrolidine]
- Remarks (agonist / antagonist): Antagonist

SMILES: O=S(=O)(c1ccc(F)cc1)N1CCCC1c1ccc(F)c(Cl)c1 (racemic) [Example 44, (RS)-2-(3-Chloro-4-fluoro-phenyl)-1-(4-fluoro-benzenesulfonyl)-pyrrolidine]
- Remarks (agonist / antagonist): Antagonist

SMILES: CC(=O)c1ccc(S(=O)(=O)N2CCCC2c2ccc(F)cc2)cc1 (racemic) [Example 27, (RS)-1-{4-[2-(4-Fluoro-phenyl)-pyrrolidine-1-sulfonyl]-phenyl}-ethanone]
- Remarks (agonist / antagonist): Antagonist

SMILES: Cc1ccc(S(=O)(=O)N2CCCC2c2ccc(F)cc2)cc1 (racemic) [Example 12, (RS)-2-(4-Fluoro-phenyl)-1-(toluene-4-sulfonyl)-pyrrolidine]
- Remarks (agonist / antagonist): Agonist

SMILES: Cc1ccc(S(=O)(=O)N2CCCC2c2cccnc2)cc1 (racemic) [Example 83, (RS)-3-[1-(Toluene-4-sulfonyl)-pyrrolidin-2-yl]-pyridine]
- agonistic / antagonistic activity to the mGlu receptor: agonistic activty
- Remarks (agonist / antagonist): Agonist

SMILES: Cc1ccc(S(=O)(=O)N2CCCC2c2ccsc2)cc1 (racemic) [Example 55, (RS)-2-Thien-3-yl-1-(toluene-4-sulfonyl)-pyrrolidine]
- agonistic / antagonistic activity to the mGlu receptor: agonistic activty
- Remarks (agonist / antagonist): Agonist

SMILES: Cc1ccc(S(=O)(=O)N2CCCC2c2ccccc2)cc1 (racemic) [Example 4, (RS)-2-Phenyl-1-(toluene-4-sulfonyl)-pyrrolidine]
- agonist/antagonist: agonist
- EC50: 0.23 µM
- Remarks (agonist / antagonist): Agonist

SMILES: Cc1cccc(C2CCCN2S(=O)(=O)c2ccc(F)cc2)c1 (racemic) [Example 30, (RS)-1-(4-Fluoro-benzenesulfonyl)-2-m-tolyl-pyrrolidine]
- Remarks (agonist / antagonist): Antagonist

SMILES: COc1ccc(C2CCCN2S(=O)(=O)c2ccc(Cl)cc2)cc1 (racemic) [Example 24, (RS)-1-(4-Chloro-benzenesulfonyl)-2-(4-methoxyl-phenyl)-pyrrolidine]
- Remarks (agonist / antagonist): Antagonist

SMILES: CCc1ccc(S(=O)(=O)N2CCCC2c2ccc(F)cc2)cc1 (racemic) [Example 21, (RS)-1-(4-Ethyl-benzenesulfonyl)-2-(4-fluoro-Rhenyl)-pyrrolidine]
- agonistic / antagonistic activity to the mGlu receptor: agonistic activty
- Remarks (agonist / antagonist): Agonist

SMILES: O=S(=O)(c1ccc(F)cc1)N1CCCC1c1cccs1 (racemic) [Example 35, (RS)-1-(4-Fluoro-benzenesulfonyl)-2-thien-2-yl-pyrrolidine]
- Remarks (agonist / antagonist): Antagonist

SMILES: CN(C)c1ccc(C2CCCN2S(=O)(=O)c2ccc(Cl)cc2)cc1F (racemic) [Example 40, (RS)-1-(4-Chloro-benzenesulfonyl)-2-(4-dimethylamino-3-fluoro-phenyl)-pyrrolidine]
- agonistic / antagonistic activity to the mGlu receptor: agonistic activty
- Remarks (agonist / antagonist): Agonist

SMILES: Cc1ccc(S(=O)(=O)N2CCCC2c2ccc(F)c(Cl)c2)cc1 (racemic) [Example 42, (RS)-2-(3-Chloro-4-fluoro-phenyl)-1-(toluene-4-sulfonyl)-pyrrolidine]
- Remarks (agonist / antagonist): Agonist

SMILES: O=S(=O)(c1ccc(Cl)cc1)N1CCCC1c1ccccc1 (racemic) [Example 6, (RS)-1-(4-Chloro-benzenesulfonyl)-2-phenyl-pyrrolidine]
- agonistic / antagonistic activity to the mGlu receptor: agonistic activty
- Remarks (agonist / antagonist): Agonist

SMILES: COc1ccc(S(=O)(=O)N2CCCC2c2ccc(F)cc2)cc1 (racemic) [Example 10, (RS)-2-(4-Fluoro-phenyl)-1-(4-methoxy-benzenesulfonyl)-pyrrolidine]
- Remarks (agonist / antagonist): Antagonist

SMILES: Cc1ccc(S(=O)(=O)N2CCCC2c2ccncc2)cc1 (racemic) [Example 3, (RS)-4-[1-(Toluene-4-sulfonyl)-pyrrolidin-2-yl]-pyridine]
- agonist/antagonist: agonist
- EC50: 8.22 µM
- Remarks (agonist / antagonist): Agonist

The remaining lines, values ahead:

- agonistic / antagonistic activity to the mGlu receptor: agonistic activty
- Remarks (agonist / antagonist): agonist
SMILES: Cc1ccc(S(=O)(=O)N2CC[C@@H](CO)[C@@H]2c2ccc(F)cc2)cc1 (racemic) [Example 91, (2RS,3 RS)-[2-(4-Fluoro-phenyl)-1-(toluene-4-sulfonyl)-pyrrolidin-3-yl]-methanol]

- Remarks (agonist / antagonist): Antagonist
SMILES: Cc1ccc(C2CCCN2S(=O)(=O)c2ccc(F)cc2)c(C)c1 (racemic) [Example 68, (RS)-2-(2,4-Dimethyl-phenyl)-1-(4-fluoro-benzenesulfonyl)-pyrrolidine]

- agonistic / antagonistic activity to the mGlu receptor: agonistic activty
- Remarks (agonist / antagonist): Agonist
SMILES: Cc1ccc(S(=O)(=O)N2CCC[C@H]2c2ccc(F)cc2)cc1 [Example 82, (S)-2-(4-Fluoro-phenyl)-1-(toluene-4-sulfonyl)-pyrrolidine]

- Remarks (agonist / antagonist): Antagonist
SMILES: Cc1ccc(S(=O)(=O)N2CCCC2c2ccc(C)cc2C)cc1 (racemic) [Example 67, (RS)-2-(2,4-Dimethyl-phenyl)-1-(toluene-4-sulfonyl)-pyrrolidine]

- agonistic / antagonistic activity to the mGlu receptor: agonistic activty
- Remarks (agonist / antagonist): Agonist
SMILES: Cc1ccc(S(=O)(=O)N2CCCC2c2ccc(Cl)c(C)c2)cc1 (racemic) [Example 58, (RS)-2-(4-Chloro-3-methyl-phenyl)-1-(toluene-4-sulfonyl)-pyrrolidine]

- Remarks (agonist / antagonist): Agonist
SMILES: O=S(=O)(c1ccc(Cl)cc1)N1CCC[C@@H]1c1ccc(F)cc1 [Example 76, (R)-1-(4-Chloro-benzenesulfonyl)-2-(4-fluoro-phenyl)-pyrrolidine]

- agonistic / antagonistic activity to the mGlu receptor: agonistic activty
- Remarks (agonist / antagonist): Agonist
SMILES: Cc1ccc(S(=O)(=O)N2CCCC2c2ccc(N(C)C)cc2)cc1 (racemic) [Example 72, (RS)-2-(4-N,N-Dimethylamino-phenyl)-1-(toluene-4-sulfonyl)-pyrrolidine]

- Remarks (agonist / antagonist): Antagonist
SMILES: O=S(=O)(c1ccc(Cl)cc1)N1CCCC1c1ccco1 (racemic) [Example 71, (RS)-1-(4-Chloro-benzenesulfonyl)-2-furan-2-yl-pyrrolidine]

- agonistic / antagonistic activity to the mGlu receptor: agonistic activty
- Remarks (agonist / antagonist): Agonist
SMILES: Cc1ccc(S(=O)(=O)N2CCC[C@@H]2c2ccc(F)cc2)cc1 [Example 81, (R)-2-(4-Fluoro-phenyl)-1-(toluene-4-sulfonyl)-pyrrolidine]

- Remarks (agonist / antagonist): Antagonist
SMILES: CCc1ccc(C2CCCN2S(=O)(=O)c2ccc(Cl)cc2)cc1 (racemic) [Example 79, (RS)-2-(4-Ethyl-phenyl)-1-(4-chloro-benzenesulfonyl)-pyrrolidine]
